Measured values published in patent US11230555B2, “Bicyclic RORγ modulators” (Escalier Biosciences B.V., priority 2018, dated 2022).
pIC50: −log10 of the molar value.

target: T1, RORγt (Homo sapiens, UniProt P51449); assay: Gal4 ligand binding assay (RORγt Gal fusion reporter assay); type: cell-based; details: inverse agonists, luciferase reporter, 24h
T1 construct: purchased reporter-cell kit
T1 sequence (P51449 269-508 limits assumed): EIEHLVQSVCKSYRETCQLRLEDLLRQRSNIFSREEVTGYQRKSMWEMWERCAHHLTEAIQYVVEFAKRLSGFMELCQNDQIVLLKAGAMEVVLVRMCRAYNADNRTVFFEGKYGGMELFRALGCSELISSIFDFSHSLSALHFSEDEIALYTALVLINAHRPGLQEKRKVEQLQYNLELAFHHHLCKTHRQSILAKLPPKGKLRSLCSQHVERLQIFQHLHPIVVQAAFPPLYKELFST
Outline: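 GAL4-DBD/RORγ(t) fusion stably expressed with a Gal4-UAS luciferase reporter in […] cells, which are constitutively active. Compounds were given as 2× media with 10 points from 60 μM to 3 nM (final DMSO 0.2%) for 24 h at 37° C, 5% CO2. Luminescence was normalized to DMSO control wells.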

SMILES	pIC50
Cc1cc(CN2CC3CCC(C2)N3C(=O)Cc2c(F)cccc2F)ccc1-c1ccc(C(O)(C(F)(F)F)C(F)(F)F)cc1 [Example 74, 2-(2,6-difluorophenyl)-1-(3-((4′-(1,1,1,3,3,3-hexafluoro-2-hydroxypropan-2-yl)-2-methyl-[1,1′-biphenyl]-4-yl)methyl)-3,8-diazabicyclo[3.2.1]octan-8-yl)ethan-1-one]	< 6.60
Cc1cc(CN2CC3CCC(C2)N3S(=O)(=O)C(F)(F)F)ccc1-c1ccc(C(O)(C(F)(F)F)C(F)(F)F)cc1 [Example 60, 1,1,1,3,3,3-hexafluoro-2-(2′-methyl-4′-((8-((trifluoromethyl)sulfonyl)-3,8-diazabicyclo[3.2.1]octan-3-yl)methyl)-[1,1′-biphenyl]-4-yl)propan-2-ol]	< 6.60
CCc1c(F)c(CN2CC3CCC(C2)N3S(C)(=O)=O)cc(F)c1-c1ccc(C(O)(C(F)(F)F)C(F)(F)F)cc1Cl [Example 11, 2-(2-chloro-2′-ethyl-3′,6′-difluoro-4′-((8-(methylsulfonyl)-3,8-diazabicyclo[3.2.1]octan-3-yl)methyl)-[1,1′-biphenyl]-4-yl)-1,1,1,3,3,3-hexafluoropropan-2-ol]	> 7.30
Cc1cc(CN2CC3CCC(C2)N3Cc2ccncc2F)ccc1-c1ccc(C(O)(C(F)(F)F)C(F)(F)F)cc1 [Example 63, 1,1,1,3,3,3-hexafluoro-2-(4′-((8-((3-fluoropyridin-4-yl)methyl)-3,8-diazabicyclo[3.2.1]octan-3-yl)methyl)-2′-methyl-[1,1′-biphenyl]-4-yl)propan-2-ol]	6.60 to 7.30
CCc1cc(CN2CC3CC2CN3S(C)(=O)=O)ccc1-c1ccc(C(O)(C(F)(F)F)C(F)(F)F)cc1 (centres unmarked) [Example 38, 2-(2′-ethyl-4′-((5-(methylsulfonyl)-2,5-diazabicyclo[2.2.1]heptan-2-yl)methyl)-[1,1′-biphenyl]-4-yl)-1,1,1,3,3,3-hexafluoropropan-2-ol]	> 7.30
